Laboratory results reported in PubChem BioAssay (NCI).
“And” between values parts separate entries of the source, which are not always exact repeats. Equal values may be shown once.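 Assay format: 96-well plates, 48-hour exposure. The concentration for 50% growth inhibition is given as GI50. TGI marks complete inhibition of growth.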 Where a SMILES comes first, the peptide text is derived from it. [ ]: non-standard residue; d: D form. The star is where a group is joined. ξ: configuration not given here. NMeN = CN[C@@H](CC(N)=O)C(=O)O; NMeV = CN[C@H](C(=O)O)C(C)C; ξNMeV = CNC(C(=O)O)C(C)C; Boc = CC(C)(C)OC(=O)*; ξNMeA = CNC(C)C(=O)O

Columns and labels:
Assay in all cases: growth of human tumour cells (NCI), 48 h
[1] = system: MALME-3M melanoma
[2] = system: SNB-19 CNS
[3] = system: UACC-257 melanoma
[4] = system: HOP-92 NSCLC
[5] = system: U251 CNS
[6] = system: OVCAR-8 ovarian
[7] = system: NCI-H226 lung
[8] = system: SNB-75 CNS
[9] = system: LOX IMVI melanoma

Structure (SMILES)	TGI [1]	TGI [2]	TGI [3]	TGI [4]	TGI [5]	TGI [6]	TGI [7]	TGI [8]	TGI [9]	GI50 [1]	GI50 [2]	GI50 [3]	GI50 [4]	GI50 [5]	GI50 [6]	GI50 [7]	GI50 [8]	GI50 [9]
O=C1NC(=S)NC(=O)C1=Cc1cccc2cc3ccccc3cc12	4.17 µM	5.32 µM	3.37 µM	3.76 µM	3.36 µM	3.9 µM	4.62 µM	3.7 µM	4.49 µM									
O=CN1N=C(c2ccc(Cl)cc2)CC1c1cccc(Nc2ccnc3cc(Cl)ccc23)c1 (stereo unspecified)	7.25 µM	> 100 µM	20.9 µM	> 100 µM	13.6 µM	29.1 µM	57.7 µM	> 100 µM	3.42 µM	1.27 µM	4.19 µM	1.47 µM	1.45 µM	2.47 µM	1.92 µM	1.87 µM	1.7 µM	1.29 µM
C=C(C)CN(CC#N)CC(=C)C	> 100 µM	> 100 µM	> 100 µM		> 100 µM	> 100 µM	> 100 µM	> 100 µM	> 100 µM									
Cc1cc(I)cc(CN(C)CCN2CCCC2)c1O	44.7 µM	> 100 µM	51.4 µM	68.1 µM	> 95.8 µM	> 100 µM	> 100 µM	47.2 µM	35.2 µM	24.3 µM	34 µM	32.2 µM	16.8 µM	31.5 µM	46.7 µM	47.9 µM	17.5 µM	17.8 µM
O=C(Nc1ccc(F)cc1F)c1cc(Br)ccc1O	5.75 µM	> 100 µM	7.24 µM	3.9 µM	> 100 µM	> 100 µM	23.8 µM	3.73 µM	21.2 µM	1.85 µM	2.75 µM	1.86 µM	0.593 µM	2.78 µM	3.01 µM	2.62 µM	0.558 µM	2.91 µM
COC(=O)C(C)N(C)C(=O)[C@H](CC(N)=O)N(C)C(=O)[C@@H]1CCCN1C(=O)[C@H](C(C)C)N(C)C(=O)C(C(C)C)N(C)C(=O)[C@@H](NC(=O)OC(C)(C)C)C(C)C (stereo partly specified) (Boc-V[ξNMeV][NMeV]P[NMeN][ξNMeA]-OMe)	> 100 µM	> 100 µM	> 100 µM	> 100 µM	> 100 µM	> 100 µM	> 100 µM	> 100 µM	50 µM and 27 µM		> 100 µM	> 100 µM	> 100 µM	> 100 µM		> 100 µM		13.5 µM
Cc1occc1C(=S)Nc1ccc(Cl)c(/C=N/OC(C)C)c1	> 57.4 µM	> 67.4 µM	47.6 µM	37.4 µM	> 53.7 µM	> 55.4 µM	37.6 µM	72.7 µM	31.1 µM									
COc1ccc2c(c1)CCc1[nH]c3ccccc3c1CCCC2	> 10 µM	> 10 µM	> 10 µM	> 10 µM	> 10 µM	> 10 µM		> 10 µM	> 10 µM									
Nc1ncn(C2C=C(CO)C(O)C2O)c(=O)n1 (stereo unspecified)	> 100 µM	> 100 µM	> 100 µM		> 100 µM	> 100 µM	> 100 µM	> 100 µM										
O=c1[nH]c2c3ccccc3ccc2c2cc3c(cc12)OCO3	> 100 µM	> 100 µM	> 100 µM		> 100 µM	> 100 µM	> 100 µM	> 100 µM	> 100 µM									
O=C([O][Hg][CH2]C1COCC([CH2][Hg][O]C(=O)c2ccccc2)O1)c1ccccc1 (stereo unspecified)		40 µM	2.85 µM	4.23 µM	2.12 µM	4.62 µM	41.9 µM	29.3 µM	4.2 µM		19.2 µM	1.45 µM	2.25 µM	0.622 µM	2.03 µM	20.8 µM	15.6 µM	1.73 µM
COc1cccc(-c2nc3sccn3c2-c2ccnc(NCCNS(=O)(=O)c3ccccc3)c2)c1	> 100 µM	> 100 µM	55.2 µM	33.6 µM	> 100 µM	> 100 µM	10.5 µM		84.1 µM	2.79 µM	5.92 µM	4.47 µM	0.596 µM	3.9 µM	2.13 µM	2.48 µM		3.01 µM
Nc1cc(-c2cccc(OC(F)(F)F)c2)nc2ccc(N3CCCC3)cc12		26.9 µM and > 100 µM		18.2 µM and > 100 µM and 74.2 µM		32.6 µM and > 100 µM	> 100 µM	12.2 µM and > 100 µM and > 64.4 µM		0.265 µM and 0.299 µM and 0.246 µM	0.0458 µM and 0.0431 µM and 0.0437 µM		0.0888 µM and 0.184 µM and 0.0868 µM	0.041 µM and 0.0391 µM and 0.0371 µM	0.0547 µM and 0.0497 µM and 0.0459 µM	0.238 µM and 0.237 µM	0.0427 µM and 0.0525 µM and 0.0495 µM	0.0528 µM and 0.0485 µM and 0.046 µM
CCN=c1cc2sc3cc(NCC)c(C)cc3nc-2cc1C	3.88 µM		6.55 µM	5.62 µM	6.71 µM	11.8 µM	29 µM	5.11 µM	4.28 µM	0.782 µM		1.66 µM	0.652 µM	0.646 µM	1.22 µM	10.1 µM	1.8 µM	0.746 µM
C=CCN(CC=C)C(=O)c1cc(C)nc2c1c(=O)n(-c1ccccc1)c(=O)n2CC(O)CN1CCN(c2ncccn2)CC1 (stereo unspecified)	> 100 µM	> 100 µM		> 100 µM	> 100 µM		> 100 µM	> 100 µM	> 100 µM	> 100 µM	> 100 µM		> 100 µM	> 100 µM		> 100 µM	29 µM	> 100 µM
O=[N+]([O-])c1ccc(N=Nc2c(O)ccc3ccccc23)cc1		> 100 µM	> 100 µM	> 100 µM	67 µM and > 100 µM	> 100 µM	> 100 µM	> 100 µM	> 100 µM				32.5 µM and > 100 µM	22.5 µM and > 100 µM	> 100 µM	35.4 µM and > 100 µM	39.3 µM and > 100 µM	
Cc1ccc(/C=C/C(=O)c2sc(-c3cccnc3)nc2C)cc1	> 100 µM		> 100 µM	> 100 µM	> 100 µM	> 100 µM	> 100 µM		> 100 µM									
O=C(Nc1cc[c]([Sb](=[O])([OH])[OH])cc1)c1ccccc1	> 100 µM	> 100 µM		> 100 µM	> 100 µM	> 100 µM	> 100 µM	> 100 µM	> 100 µM	> 100 µM	> 100 µM		> 100 µM	> 100 µM	> 100 µM	> 100 µM	> 100 µM	> 100 µM
Cc1cc(N2CCCC2)nc(NC2CCCC(Nc3ccnc4cc(Cl)ccc34)C2)n1 (stereo unspecified)		3.44 µM	3.76 µM		2.86 µM	4.39 µM	3.92 µM		2.1 µM		1.46 µM	1.99 µM		1.48 µM	1.92 µM	1.91 µM		0.681 µM
O=C([CH-]C(=O)c1ccccc1)c1ccccc1.O=C([CH-]C(=O)c1ccccc1)c1ccccc1.O=C([CH-]C(=O)c1ccccc1)c1ccccc1.[OH3+].[Y+3]	47.2 µM	56.4 µM	33.2 µM	25.3 µM	24.2 µM	21.8 µM		8.1 µM	17 µM	14 µM	8.04 µM	12 µM	10 µM	2.93 µM	3.5 µM		3.25 µM	3.74 µM
CCCN1CCN(c2ccc3nc(-c4ccc5nc(-c6cc(OC)ccc6OC)[nH]c5c4)[nH]c3c2)CC1	40.9 µM		39.2 µM	27 µM	3.1 µM		46 µM	26.2 µM	3.26 µM	20.3 µM		20 µM	11 µM	1.69 µM		20.2 µM	12.8 µM	1.73 µM
COC(=O)C(=O)C(C#N)c1ccc(CC#N)cc1 (stereo unspecified)	> 100 µM	> 100 µM	> 100 µM	> 100 µM	> 100 µM		> 100 µM	> 100 µM	> 100 µM									
O=C1c2cc([N+](=O)[O-])ccc2-c2cccc(F)c21		> 100 µM	> 100 µM	> 100 µM	> 100 µM	> 100 µM	> 100 µM	> 100 µM	> 100 µM									
COC(=O)C(=O)C(C(=O)C(=O)Nc1ccccc1C(C)=O)c1nc2ccc(C(=O)c3ccccc3)cc2[nH]c1=O (stereo unspecified)	> 100 µM	> 100 µM	> 100 µM	> 100 µM		> 100 µM	> 100 µM	> 100 µM	> 100 µM									
CC/C(=C(/CC)c1ccc(O)cc1)c1ccc([O-])cc1.CC/C(=C(/CC)c1ccc(O)cc1)c1ccc([O-])cc1.O=C([CH-]C(=O)c1ccccc1)c1ccccc1.O=C([CH-]C(=O)c1ccccc1)c1ccccc1.[Ti+4]	20.3 µM	27.8 µM	35.9 µM	27.2 µM	26.9 µM	46.3 µM	45.5 µM		27.5 µM	7.53 µM	14.7 µM	15.1 µM	14.2 µM	13.9 µM	21.5 µM	23.6 µM		12.5 µM
